Test results as given in the NIST ThermoML archive (doi:10.1021/acs.jced.6b00606).

Assay: xn = mol fraction of the nth substance listed
Conditions: 100 kPa, Liquid; for speed of sound: Frequency=3 MHz, Sing-around technique in a fixed-path interferometer; for mass density: Vibrating tube method

O=C1CCCCCC1 [cycloheptanone] + C1COCCO1
Conditions	mass density, 293.15 K [kg/m3]	mass density, 298.15 K [kg/m3]	mass density, 303.15 K [kg/m3]	mass density, 308.15 K [kg/m3]	speed of sound, 293.15 K [m/s]	speed of sound, 298.15 K [m/s]	speed of sound, 303.15 K [m/s]	speed of sound, 308.15 K [m/s]
x2 = 0.0954	957.02	952.54	948.07	943.61	1466.3	1444.4	1422.1	1399.7
x2 = 0.1589	960.61	956.03	951.46	946.89	1459.2	1437.4	1415.3	1393
x2 = 0.2184	964.09	959.46	954.81	950.18	1452.6	1430.9	1408.9	1386.7
x2 = 0.2555	966.35	961.68	956.99	952.32	1448.6	1426.9	1404.9	1382.8
x2 = 0.3019	969.25	964.56	959.82	955.1	1443.6	1421.9	1400	1377.9
x2 = 0.3487	972.3	967.57	962.78	958.02	1438.6	1416.9	1395.1	1373
x2 = 0.3814	974.5	969.75	964.92	960.13	1435.1	1413.4	1391.6	1369.6
x2 = 0.4324	978.07	973.27	968.38	963.54	1429.7	1408	1386.3	1364.3
x2 = 0.4879	982.15	977.29	972.33	967.42	1423.8	1402.2	1380.5	1358.5
x2 = 0.5219	984.76	979.85	974.85	969.89	1420.3	1398.7	1377	1355
x2 = 0.5723	988.81	983.82	978.74	973.7	1415	1393.4	1371.8	1349.9
x2 = 0.6149	992.39	987.32	982.17	977.06	1410.5	1388.9	1367.4	1345.5
x2 = 0.6687	997.15	991.96	986.73	981.52	1404.8	1383.3	1361.7	1339.9
x2 = 0.7104	1001	995.75	990.44	985.15	1400.4	1378.9	1357.4	1335.6
x2 = 0.7489	1004.7	999.41	994.03	988.66	1396.3	1374.7	1353.3	1331.5
x2 = 0.7919	1009.2	1003.7	998.23	992.77	1391.6	1370.1	1348.6	1326.9
x2 = 0.8475	1015.1	1009.5	1004	998.45	1385.4	1363.9	1342.5	1320.7
x2 = 0.9018	1021.3	1015.6	1010.1	1004.4	1379.3	1357.8	1336.3	1314.5

O=C1CCCCC1 [cyclohexanone] + C1CCOCC1
Conditions	mass density, 293.15 K [kg/m3]	mass density, 298.15 K [kg/m3]	mass density, 303.15 K [kg/m3]	mass density, 308.15 K [kg/m3]	speed of sound, 293.15 K [m/s]	speed of sound, 298.15 K [m/s]	speed of sound, 303.15 K [m/s]	speed of sound, 308.15 K [m/s]
x2 = 0.1175	941.72	937.26	932.48	927.65	1411.4	1394.5	1373.6	1353.2
x2 = 0.1586	939.66	935.2	930.42	925.6	1404.6	1387.3	1366.3	1345.6
x2 = 0.1952	937.78	933.32	928.55	923.74	1398.7	1381	1359.7	1339.1
x2 = 0.2471	935.05	930.59	925.82	921.01	1390.5	1372.1	1350.7	1329.8
x2 = 0.2843	933.05	928.59	923.82	919.01	1384.6	1365.8	1344.4	1323.4
x2 = 0.3396	930	925.53	920.76	915.96	1376.1	1356.7	1335.2	1314
x2 = 0.3784	927.8	923.32	918.56	913.76	1370.3	1350.6	1328.9	1307.6
x2 = 0.4178	925.53	921.03	916.26	911.46	1364.5	1344.5	1322.6	1301.2
x2 = 0.462	922.91	918.41	913.62	908.82	1358.2	1337.8	1315.8	1294.2
x2 = 0.5009	920.56	916.03	911.24	906.44	1352.6	1332.1	1309.9	1288.3
x2 = 0.5486	917.59	913.03	908.24	903.43	1346.1	1325.3	1302.9	1281.1
x2 = 0.5814	915.51	910.91	906.13	901.31	1341.7	1320.7	1298.2	1276.3
x2 = 0.6379	911.8	907.17	902.35	897.53	1334.3	1313.2	1290.3	1268.3
x2 = 0.6899	908.28	903.58	898.75	893.91	1327.7	1306.4	1283.4	1261.3
x2 = 0.7389	904.83	900.08	895.23	890.37	1321.7	1299.7	1277	1254.8
x2 = 0.7804	901.82	897.02	892.14	887.26	1316.8	1294.6	1271.8	1249.6
x2 = 0.8345	897.76	892.89	887.96	883.04	1310.6	1288.1	1265.3	1242.9
x2 = 0.8929	893.19	888.23	883.23	878.25	1304.1	1281.4	1258.5	1236.1
